Measurements as given in paper PMC1097768 (Nucleic Acids Research, 2005).

Target: mNdK (nucleoside diphosphate kinase) (Mycobacterium tuberculosis, UniProt P9WJH7)
Experiment: FRET molecular beacon nuclease assay with FP1T, Lineweaver-Burk analysis
Assay type: biochemical

mNdK (nucleoside diphosphate kinase), sequence (P9WJH7 whole entry): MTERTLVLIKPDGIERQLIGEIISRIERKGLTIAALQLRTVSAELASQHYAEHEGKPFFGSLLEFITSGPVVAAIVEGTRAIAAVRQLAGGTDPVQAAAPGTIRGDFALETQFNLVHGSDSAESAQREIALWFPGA

In the case of Nc1nc2c(ncn2[C@@H]2O[C@H](COP(=O)(O)OP(=O)(O)O)[C@@H](O)[C@H]2O)c(=O)[nH]1 [GDP], the Ki is reported as about 1900 µM.
